Test results published in US20170119896A1, “TERMINALLY MODIFIED POLYMERS AND CONJUGATES THEREOF” (Mersana Therapeutics, Inc., priority 2012, published 2017).

Biological target: T1, glucagon-like peptide-1 receptor (GLP1R CHO-K1 Gs overexpressing cells) (Homo sapiens, UniProt P43220)
T1 construct: host or cells: CHO-K1
Assay: DiscoveRx cAMP Hunter express GPCR Assay (cellular cAMP formation)
Format: cell-based
Details: 30 min at 37° C., cAMP chemiluminescent signal, four-parameter curve fitting
Procedure: The activity of terminally modified PHF exendin conjugates were measured using DiscoveRx cAMP Hunter express GPCR Assay which determines the cellular formation of a second messenger such as cAMP. […] It binds to glucagon-like peptide-1 receptor 1-G-protein coupled receptor (GPCR). Following stimulation of this receptor, intracellular signaling pathways are activated that lead to the production of intracellular second messengers, such as cAMP. Free cAMP molecules from cell lysates compete for antibody binding with a labeled enzyme donor (ED)-cAMP conjugate, which contains a small peptide fragment of β-galactosidase. In the absence of free cAMP, the ED-cAMP conjugates are captured by the cAMP-specific antibody and are unavailable for complementation with the enzyme acceptor (EA), resulting in a low signal. In the presence of free cAMP, antibody sites are occupied, allowing the ED-cAMP conjugate to complement with EA, forming an active β-galactosidase enzyme; substrate hydrolysis by this enzyme produces a chemiluminescent signal. The signal generated is in direct proportion to the amount of free cAMP […]. […] Luminescent signal was measured using a SpectraMax M5 plate reader (Molecular Devices). […] EC50 values were determined from four-parameter curve fitting.

T1 sequence (P43220 24-463): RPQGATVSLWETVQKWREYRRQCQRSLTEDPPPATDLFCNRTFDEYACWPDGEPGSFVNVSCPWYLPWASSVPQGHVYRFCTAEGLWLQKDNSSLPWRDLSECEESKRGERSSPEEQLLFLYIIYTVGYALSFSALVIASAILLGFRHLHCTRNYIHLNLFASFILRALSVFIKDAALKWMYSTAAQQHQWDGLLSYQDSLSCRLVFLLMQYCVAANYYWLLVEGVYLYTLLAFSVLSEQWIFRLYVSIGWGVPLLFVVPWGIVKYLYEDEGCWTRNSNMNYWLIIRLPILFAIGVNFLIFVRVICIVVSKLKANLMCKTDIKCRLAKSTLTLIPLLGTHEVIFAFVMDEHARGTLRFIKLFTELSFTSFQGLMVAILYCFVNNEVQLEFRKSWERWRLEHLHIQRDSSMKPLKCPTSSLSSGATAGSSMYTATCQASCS

For “50 kDa PHF-6-maleimido hexanamide-Exendin-4-Cys (i.e., (Exendin-4-Cys)-(N-(2-maleimido)propanamido)propyl)-ethylamino-50 kDa PHF) [Example 15]”, the EC50 was 1.87 nM.
